Results published in ChEMBL document CHEMBL1201862, “PubChem BioAssay data set” (2004).
Calls of active or inactive are those of the source.

Experiments:
[1] = biological target: Luciferin 4-monooxygenase (Photinus pyralis, UniProt P08659); assay: inhibition of purified Photinus pyralis luciferase – biochemical, luminescence, dose response (AID 1891)
[2] = alpha-synuclein stem-loop luciferase translation blockers – H4 neuroglioma cells, luminescence, confirmation (AID 1988); assay type: functional, cell-based
Beta-galactosidase = Beta-galactosidase (Escherichia coli, UniProt Q8VNN2); assay: PubChem AID 485352; assay type: functional
[3] = blockers of bursicon-stimulated LGR2 cAMP reporter – cell-based, HEK293, CRE-luciferase reporter, cherry pick, set 2, dose response (AID 743343); assay type: functional;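 also: transfected cells were stimulated with diluted bursicon conditioned medium after compound addition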
[4] = A549 cell cytotoxicity, dose response, cytotoxicity control, plate reader, cherry-pick, antagonist series (AID 743412); assay type: functional, cell-based
[5] = Luminescence Cell-Based Dose Confirmation HTS to Identify Inhibitors of Platelet Dense Granule Release. [Related pubchem assays: 1663 (Primary HTS), 1678 (Summary of Project)]; assay type: functional
[6] = toxicity toward HepG2 liver cells – cell-based, plate reader, cherry-pick, antagonist series, cytotoxicity control, dose response (AID 743416); assay type: functional
[7] = viability loss in HEK293 cells – cell-based, plate reader, cherry-picked samples, cytotoxicity control, dose response (AID 743446); assay type: functional
[8] = biological target: T1, Type-1 angiotensin II receptor (Homo sapiens, UniProt P30556); assay: antagonism of angiotensin II type 1 receptor – cell-based, uHTS hits, selectivity assay for APJ receptor antagonist project, dose response (AID 463214); assay type: functional;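 also: antagonist potency against angiotensin II stimulated AT1 response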
T1 sequence (P30556 whole entry): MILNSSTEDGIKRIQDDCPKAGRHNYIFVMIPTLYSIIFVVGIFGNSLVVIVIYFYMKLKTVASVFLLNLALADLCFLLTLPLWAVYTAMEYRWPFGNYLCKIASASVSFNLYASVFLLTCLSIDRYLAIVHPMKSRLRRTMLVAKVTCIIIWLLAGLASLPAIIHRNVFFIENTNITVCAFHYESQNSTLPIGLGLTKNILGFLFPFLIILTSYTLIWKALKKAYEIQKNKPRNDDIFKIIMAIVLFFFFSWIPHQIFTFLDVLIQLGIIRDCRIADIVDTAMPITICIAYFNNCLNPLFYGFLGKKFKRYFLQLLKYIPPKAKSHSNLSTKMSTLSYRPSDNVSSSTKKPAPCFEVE

[9] = blockade of melanocortin 4 receptor signaling – cell-based, plate reader, cherry pick, counter-screen for LGR2 antagonist project, dose response (AID 743444); assay type: functional;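 also: transfected HEK 293 cells stimulated with alpha-MSH peptide; potency of inhibitors of the alpha-MSH evoked signal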
[10] = Luminescence Cell-Based Dose Response HTS to Identify Inhibitors of 5'UTR Stem-Loop Driven Prion Protein mRNA Translation in H4 Neuroglioblastoma Cells. [Related pubchem assays: 1827 (Project Summary), 1813 (Primary HTS)]; assay type: functional
[11] = biological target: T2, Microphthalmia-associated transcription factor (Homo sapiens, UniProt O75030); assay: reducers of TRPM1 reporter luminescence, concentration series – cell-based, SK-MEL-5, cherry-picked, set 3, MITF inhibitor project, dose response (AID 493073); assay type: functional;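 also: SK-MEL-5 melanoma cells with luciferase driven by the MITF target TRPM1 promoter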
T2 sequence (O75030 whole entry): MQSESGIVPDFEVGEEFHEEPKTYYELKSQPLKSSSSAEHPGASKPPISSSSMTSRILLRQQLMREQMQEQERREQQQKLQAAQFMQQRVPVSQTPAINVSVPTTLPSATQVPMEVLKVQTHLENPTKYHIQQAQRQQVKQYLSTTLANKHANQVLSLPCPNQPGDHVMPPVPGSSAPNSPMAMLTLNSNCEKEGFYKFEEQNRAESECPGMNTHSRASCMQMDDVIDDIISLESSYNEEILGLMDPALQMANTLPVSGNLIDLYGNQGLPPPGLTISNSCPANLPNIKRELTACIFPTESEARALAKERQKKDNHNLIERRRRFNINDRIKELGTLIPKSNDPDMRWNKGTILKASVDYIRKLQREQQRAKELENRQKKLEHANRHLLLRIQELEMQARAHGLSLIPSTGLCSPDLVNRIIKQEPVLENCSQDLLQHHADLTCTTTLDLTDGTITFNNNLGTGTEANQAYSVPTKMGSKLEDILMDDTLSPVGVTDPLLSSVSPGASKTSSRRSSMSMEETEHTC

A-375 = assay: proliferation inhibition in MITF-low A375 cells – cell-based, cherry-pick samples, set 2, counter-screen for MITF modulator project, dose response (AID 540335); assay type: functional; conditions: Homo sapiens
Escherichia coli = assay: microbe, parasite or virus in culture
Nonstructural protein 1 = Nonstructural protein 1 (Influenza A virus, UniProt Q194T2); assay type: functional, Influenza A virus (A/California/07/2009(H1N1))
MDCK [12] = assay: antiviral activity against H1N1 influenza, dose response, cell-based, strain KY136 (AID 540257); assay type: functional; conditions: Canis lupus familiaris
MDCK [13] = assay: antiviral activity against H1N1 influenza, dose response, cell-based, strain KY180 (AID 540254); assay type: functional; conditions: Canis lupus familiaris
[14] = biological target: Glycogen synthase kinase-3 beta (Homo sapiens, UniProt P49841); assay: Inhibition of Human GSK-3 beta Activity Measured in Biochemical System Using Microfluidics - 2063-05_Inhibitor_Dose_DryPowder_Activity. [Related pubchem assays (depositor defined):AID2709]
[15] = biological target: Glycogen synthase kinase-3 alpha (Homo sapiens, UniProt P49840); assay: Inhibition of Human GSK-3 alpha Activity Measured in Biochemical System Using Microfluidics - 2063-06_Inhibitor_Dose_DryPowder_Activity. [Related pubchem assays (depositor defined):AID2709]
Jurkat [16] = assay: blockers of NF-kB activation in T cells – Jurkat, luciferase reporter, luminescence, B- and T-cell, dose response (AID 489004); assay type: functional, cell-based; conditions: Homo sapiens;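 also: NF-kB luciferase reporter Jurkat cells stimulated with PMA plus ionomycin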
HEK293 [17] = assay: cells; assay type: functional, cell-based; conditions: Homo sapiens
[18] = HEK-293T viability loss, compound-treated – cell-based, uHTS hits, cytotoxicity control for B/T-cell NF-kB inhibitor project, dose response (AID 489019); assay type: functional;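 also: IC50 reflects cytotoxicity as loss of cell viability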
HEK293 [19] = assay: inhibition of NOD1-driven NF-kB reporter – cell-based, luminescence, uHTS, primary screen (AID 1578); assay type: functional; conditions: Homo sapiens
[20] = biological target: Nucleotide-binding oligomerization domain-containing protein 2 (Homo sapiens, UniProt Q9HC29); assay: inhibition of NOD2-driven NF-kB reporter – cell-based, luminescence, uHTS, HEK293 (AID 1566); assay type: functional
HEK293 [21] = assay: cells; assay type: functional, cell-based; conditions: Homo sapiens; remark: listed apart in the source
INS1 = assay: INS-1E survival protection against cytokine death – cell-based, luminescence, retest, dose response (AID 449756); assay type: functional; conditions: Rattus norvegicus;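 also: cell death triggered by IL-1 beta plus TNF-alpha plus IFN-gamma mixture; protective hits raise ATP signal compared with cytokine alone wells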
HEK293 [22] = assay: NOD2 signaling inhibitors in MDP-stimulated cells, cell-based, uHTS, luminescence (AID 2001); assay type: functional; conditions: Homo sapiens
HEK293 [23] = assay: cells; assay type: functional, cell-based; conditions: Homo sapiens; remark: listed apart in the source
[24] = biological target: T3, COUP transcription factor 2 (Homo sapiens, UniProt P24468); assay: Luminescence-based cell-based high throughput dose response assay to identify inhibitors of COUP-TFII (NR2F2).; assay type: functional;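 also: HEK293 cells transiently cotransfected with COUP-TFII expression vector and reporter; luciferase reporter luminescence driven by COUP-TFII from the pX2-168 reporter plasmid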
T3 sequence (P24468 whole entry): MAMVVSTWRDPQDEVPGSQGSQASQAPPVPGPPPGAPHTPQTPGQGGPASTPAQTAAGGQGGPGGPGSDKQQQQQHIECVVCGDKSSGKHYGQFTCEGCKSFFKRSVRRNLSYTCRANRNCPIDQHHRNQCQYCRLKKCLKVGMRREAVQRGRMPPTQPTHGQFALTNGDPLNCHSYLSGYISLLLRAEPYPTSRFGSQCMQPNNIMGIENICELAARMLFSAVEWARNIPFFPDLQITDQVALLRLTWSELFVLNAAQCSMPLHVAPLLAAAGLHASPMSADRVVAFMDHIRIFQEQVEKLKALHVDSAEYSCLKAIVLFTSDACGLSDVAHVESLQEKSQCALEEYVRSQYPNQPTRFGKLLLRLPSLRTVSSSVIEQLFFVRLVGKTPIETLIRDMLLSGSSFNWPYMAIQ

HEK293 [25] = assay: HEK293T cell viability loss, resazurin readout – resazurin fluorescence, cytotoxicity control for NF-kB activator project, SAR follow-up (AID 493251); assay type: functional, cell-based; conditions: Homo sapiens
HEK293 [26] = assay: SAR Analysis of small molecule inhibitors of T-cell specific antigen receptor-induced NF-kB activation in a HEK-293T cell line using a luminescence assay - Set 2. [Related pubchem assays (depositor defined):AID435003, AID435012, AID489026]; assay type: functional, cell-based; conditions: Homo sapiens
Jurkat [27] = assay: SAR Analysis of small molecule inhibitors of T-cell specific antigen receptor-induced NF-kB activation in a Jurkat cell line using a luminescence assay - Set 2. [Related pubchem assays (depositor defined):AID435003, AID435012, AID465]; assay type: functional, cell-based; conditions: Homo sapiens
Candida albicans [28] = assay: fluconazole-resistant Candida strain growth inhibitors – CaCi-8 strain, dry powder, set 4, dose response (AID 488950); assay type: functional, organism-based
Candida albicans [29] = assay: Candida growth reduction in fluconazole presence – CaCi-2 strain, Alamar Blue, dry powder, set 2, antifungal resistance reversal project, dose response (AID 488930); assay type: functional, organism-based
Candida albicans [30] = assay: C. albicans growth inhibition with fluconazole – CaCi-2 strain, Alamar Blue, dry powder, set 4, dose response (AID 488943); assay type: functional, organism-based
Candida albicans [31] = assay: resistant Candida growth with fluconazole co-treatment – CaCi-8 strain, Alamar Blue, dry powder, set 2, dose response (AID 488909); assay type: functional, organism-based

Sequence of Nonstructural protein 1 (Q194T2 whole entry): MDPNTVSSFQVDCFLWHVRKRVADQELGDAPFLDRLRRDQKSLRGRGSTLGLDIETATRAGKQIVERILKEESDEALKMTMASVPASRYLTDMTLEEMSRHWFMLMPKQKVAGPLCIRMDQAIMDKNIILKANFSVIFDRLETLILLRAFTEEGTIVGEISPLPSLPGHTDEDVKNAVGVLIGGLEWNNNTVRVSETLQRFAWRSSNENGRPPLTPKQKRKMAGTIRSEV
Sequence of Luciferin 4-monooxygenase (P08659 whole entry): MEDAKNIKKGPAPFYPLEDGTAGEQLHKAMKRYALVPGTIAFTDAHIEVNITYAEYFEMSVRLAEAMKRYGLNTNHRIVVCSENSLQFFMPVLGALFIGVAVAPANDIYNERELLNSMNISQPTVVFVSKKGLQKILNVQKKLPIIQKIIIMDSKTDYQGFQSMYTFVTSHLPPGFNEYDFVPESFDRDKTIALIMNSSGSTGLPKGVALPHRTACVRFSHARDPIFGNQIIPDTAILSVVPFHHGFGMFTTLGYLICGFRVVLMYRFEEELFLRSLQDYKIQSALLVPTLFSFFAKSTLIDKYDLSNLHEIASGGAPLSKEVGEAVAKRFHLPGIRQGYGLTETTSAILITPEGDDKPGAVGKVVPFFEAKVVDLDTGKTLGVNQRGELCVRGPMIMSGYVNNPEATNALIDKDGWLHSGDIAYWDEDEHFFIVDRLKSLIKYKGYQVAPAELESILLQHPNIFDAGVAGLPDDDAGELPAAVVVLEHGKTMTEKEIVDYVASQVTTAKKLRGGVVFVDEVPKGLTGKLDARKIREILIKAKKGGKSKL
Sequence of Beta-galactosidase (Q8VNN2 whole entry): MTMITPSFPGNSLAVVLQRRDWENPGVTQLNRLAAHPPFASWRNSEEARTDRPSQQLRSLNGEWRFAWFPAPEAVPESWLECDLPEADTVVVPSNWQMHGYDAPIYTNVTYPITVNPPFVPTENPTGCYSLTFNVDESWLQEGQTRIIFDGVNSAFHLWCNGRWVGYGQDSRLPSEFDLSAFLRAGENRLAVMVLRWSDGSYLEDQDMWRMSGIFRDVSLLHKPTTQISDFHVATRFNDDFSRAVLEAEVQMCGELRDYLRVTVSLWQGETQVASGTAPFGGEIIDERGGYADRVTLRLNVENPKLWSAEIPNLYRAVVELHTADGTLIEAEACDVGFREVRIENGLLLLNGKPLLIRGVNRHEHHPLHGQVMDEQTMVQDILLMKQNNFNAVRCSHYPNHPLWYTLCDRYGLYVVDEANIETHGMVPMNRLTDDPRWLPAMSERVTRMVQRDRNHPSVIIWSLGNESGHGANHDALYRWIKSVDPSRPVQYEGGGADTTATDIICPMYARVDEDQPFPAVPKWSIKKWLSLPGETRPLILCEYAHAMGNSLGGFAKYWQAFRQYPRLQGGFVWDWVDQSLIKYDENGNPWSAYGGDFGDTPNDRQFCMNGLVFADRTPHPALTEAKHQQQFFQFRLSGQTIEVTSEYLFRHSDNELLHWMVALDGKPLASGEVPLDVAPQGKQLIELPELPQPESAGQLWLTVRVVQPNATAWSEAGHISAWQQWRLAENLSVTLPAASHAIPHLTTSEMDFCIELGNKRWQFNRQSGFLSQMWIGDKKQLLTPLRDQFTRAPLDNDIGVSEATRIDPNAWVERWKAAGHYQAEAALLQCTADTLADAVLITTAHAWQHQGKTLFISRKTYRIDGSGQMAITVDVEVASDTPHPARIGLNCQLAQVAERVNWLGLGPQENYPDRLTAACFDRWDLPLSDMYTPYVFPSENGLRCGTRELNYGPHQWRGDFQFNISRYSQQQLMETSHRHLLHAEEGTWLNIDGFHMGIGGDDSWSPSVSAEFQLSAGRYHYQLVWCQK
Sequence of Nucleotide-binding oligomerization domain-containing protein 2 (Q9HC29 whole entry, the tested form may be a part): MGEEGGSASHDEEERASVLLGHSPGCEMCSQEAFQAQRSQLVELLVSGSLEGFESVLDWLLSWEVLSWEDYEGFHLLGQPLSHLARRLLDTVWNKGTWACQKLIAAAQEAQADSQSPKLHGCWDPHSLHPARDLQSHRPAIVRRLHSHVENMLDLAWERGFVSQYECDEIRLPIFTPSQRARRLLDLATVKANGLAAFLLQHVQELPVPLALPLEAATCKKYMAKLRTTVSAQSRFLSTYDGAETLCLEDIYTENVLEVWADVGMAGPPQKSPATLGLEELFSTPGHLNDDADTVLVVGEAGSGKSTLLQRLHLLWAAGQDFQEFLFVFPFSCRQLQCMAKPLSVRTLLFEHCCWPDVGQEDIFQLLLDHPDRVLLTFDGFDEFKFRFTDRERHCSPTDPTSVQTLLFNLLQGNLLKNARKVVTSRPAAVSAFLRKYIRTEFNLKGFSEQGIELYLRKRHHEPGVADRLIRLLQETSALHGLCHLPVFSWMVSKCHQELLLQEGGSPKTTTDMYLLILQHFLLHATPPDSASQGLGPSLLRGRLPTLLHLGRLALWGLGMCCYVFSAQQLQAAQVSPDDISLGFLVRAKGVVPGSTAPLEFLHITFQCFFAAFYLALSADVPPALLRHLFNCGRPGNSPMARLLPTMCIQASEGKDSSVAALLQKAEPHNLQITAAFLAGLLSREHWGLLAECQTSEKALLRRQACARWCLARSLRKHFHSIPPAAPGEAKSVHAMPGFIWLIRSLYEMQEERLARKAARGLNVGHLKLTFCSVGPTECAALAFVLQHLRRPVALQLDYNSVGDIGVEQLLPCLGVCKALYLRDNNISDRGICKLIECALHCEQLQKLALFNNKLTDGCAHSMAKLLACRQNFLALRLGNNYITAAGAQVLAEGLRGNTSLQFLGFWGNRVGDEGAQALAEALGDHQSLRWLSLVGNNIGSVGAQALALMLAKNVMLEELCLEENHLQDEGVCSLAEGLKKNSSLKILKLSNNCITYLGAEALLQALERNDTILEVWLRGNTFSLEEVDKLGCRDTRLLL
Sequence of Glycogen synthase kinase-3 beta (P49841 whole entry): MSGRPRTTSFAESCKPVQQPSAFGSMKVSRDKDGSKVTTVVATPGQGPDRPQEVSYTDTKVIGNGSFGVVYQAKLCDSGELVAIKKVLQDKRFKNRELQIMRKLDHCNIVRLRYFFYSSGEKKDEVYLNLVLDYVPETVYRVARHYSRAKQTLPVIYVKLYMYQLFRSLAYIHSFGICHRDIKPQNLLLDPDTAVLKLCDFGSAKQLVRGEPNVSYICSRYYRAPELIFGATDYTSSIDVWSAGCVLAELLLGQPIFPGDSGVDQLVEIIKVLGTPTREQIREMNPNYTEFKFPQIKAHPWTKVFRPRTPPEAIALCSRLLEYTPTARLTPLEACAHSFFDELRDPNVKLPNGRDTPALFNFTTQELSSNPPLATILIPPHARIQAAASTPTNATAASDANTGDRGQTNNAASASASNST
Sequence of Glycogen synthase kinase-3 alpha (P49840 whole entry): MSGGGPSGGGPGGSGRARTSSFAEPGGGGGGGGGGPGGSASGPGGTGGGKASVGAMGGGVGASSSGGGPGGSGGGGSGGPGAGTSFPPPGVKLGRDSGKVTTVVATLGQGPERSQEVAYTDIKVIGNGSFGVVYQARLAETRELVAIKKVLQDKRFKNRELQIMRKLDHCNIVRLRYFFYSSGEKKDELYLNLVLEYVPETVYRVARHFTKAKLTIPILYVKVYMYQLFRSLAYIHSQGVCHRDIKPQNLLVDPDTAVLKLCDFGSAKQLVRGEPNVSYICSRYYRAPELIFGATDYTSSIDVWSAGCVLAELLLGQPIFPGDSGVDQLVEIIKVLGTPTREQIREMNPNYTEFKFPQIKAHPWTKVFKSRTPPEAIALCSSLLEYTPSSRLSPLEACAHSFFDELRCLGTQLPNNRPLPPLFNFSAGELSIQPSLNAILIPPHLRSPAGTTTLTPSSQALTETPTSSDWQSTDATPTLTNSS

## COc1ccc(-c2cc3c(nn2)-c2ccccc2C3=O)cc1
[1]
  EC50: 0.384 µM (active)
[2]
  EC50: 0.375 µM (inconclusive)
Beta-galactosidase
  EC50: > 40 µM (inactive)
[3]
  AC50: 4.41 µM (active)
[4]
  AC50: 29.2 µM (active)
[5]
  EC50: 6.87 µM (active)
[6]
  AC50: 15.8 µM (active)
[7]
  AC50: 23.4 µM (active)
[8]
  IC50: 6.98 µM (active)
[9]
  AC50: 5.11 µM (active)
[10]
  EC50: > 60 µM (not active)
[11]
  AC50: 4.22 µM (active)
A-375
  AC50: 20.2 µM (active)

## CC(C)c1cc(C(=O)NCc2ccco2)no1
Escherichia coli
  AC50: 46.2 µM (active)

## CN(C)c1cccc2c(C=C(C#N)C#N)ccc(N(C)C)c12
Nonstructural protein 1
  IC50: 22.6 µM (active)
MDCK [12]
  IC50: > 100 µM (active)
MDCK [13]
  IC50: 15.9 µM (active)

## Nc1nc(NCCCN2CCOCC2)nc(Nc2cccc(F)c2)c1[N+](=O)[O-]
[14]
  AC50: 0.208 µM (active)
[15]
  AC50: 0.698 µM (active)

## O=S(=O)(NCC1CCCO1)c1ccc(-c2ccc(S(=O)(=O)NCC3CCCO3)cc2)cc1 (stereo unspecified)
Jurkat [16]
  IC50: > 80 µM (inactive)
HEK293 [17]
  IC50: > 20 µM (inactive)
[18]
  IC50: > 80 µM (inactive)
HEK293 [19]
  EC50: 1.65 µM (active)
[20]
  EC50: > 20 µM (inactive)
HEK293 [21]
  IC50: 19.9 µM (active)
INS1
  AC50: 3.25 µM (active)
HEK293 [22]
  IC50: 9.07 µM (active)
HEK293 [23]
  IC50: 5.37 µM (active)
[24]
  IC50: 2.02 µM (active)

## COc1ccc(C(=O)Nc2ccc(NC(=O)c3cc4ccccc4o3)cc2)cc1Cl
HEK293 [25]
  IC50: > 80 µM (inactive)
HEK293 [26]
  IC50: > 80 µM (inactive)
Jurkat [27]
  IC50: > 79 µM (inactive)

## O=C(c1ccc(Cl)cc1)C1CCN(c2ccnc3cc(Cl)ccc23)CC1
Candida albicans [28]
  AC50: 0.579 µM (active)
Candida albicans [29]
  AC50: 0.663 µM (active)
Candida albicans [30]
  AC50: 0.342 µM (active)
Candida albicans [31]
  AC50: 3.81 µM (active)
